# Laboratory results taken from patent US10865216B2, “Tricyclic Gyrase inhibitors” (MERCK SHARP & DOHME CORP., priority 2012, dated 2020).
# Test system: S. aureus ATCC 13709
# Experiment: MIC, S. aureus ATCC 13709
# Assay type: cell-based
# Conditions: S. aureus; Alamar Blue read after overnight incubation at 35° C.
row,SMILES,MIC Sa
1,CNc1cc(F)cc2c1[nH]c1nc(Oc3cnc(C#N)c(C)c3)nc(N3CC4(CCC4N)C3)c12 (centres unmarked) [Compound 4.326],≤0.5 µg/mL
2,CNc1cc(F)cc2c1[nH]c1nc(Oc3cnc(CC(=O)N4CC(N(C)C)C4)nc3)nc(N3C[C@H](N)C4(CC4)C3)c12 [Compound 4.373],2 µg/mL
3,CNc1cc(F)cc2c1[nH]c1nc(Oc3cnc(C)nc3)nc(N3CC4CCC(CN)C4C3)c12 (centres unmarked) [Compound 4.112],≤0.5 µg/mL
4,CNc1cc(F)cc2c1[nH]c1nc(Oc3cnc(SC)nc3)nc(N3CC4CCC(N)C4C3)c12 (centres unmarked) [Compound 4.200],≤0.5 µg/mL
5,CNc1cc(F)cc2c1[nH]c1nc(Oc3cncnc3)nc(N3CC4CCC(N)C4C3)c12 (centres unmarked) [Compound 4.026],≤0.5 µg/mL
6,CNc1cc(F)cc2c1[nH]c1nc(Oc3cnc(C)nc3)nc(N3CC4C(C3)C4NC(=O)CN)c12 (centres unmarked) [Compound 4.078],≤0.5 µg/mL
7,CNc1cc(F)cc2c1[nH]c1nc(Oc3cncnc3)nc(N3CCC(C4(N)CC4)C3)c12 (centres unmarked) [Compound 4.027],≤0.5 µg/mL
8,CNc1cc(F)cc2c1[nH]c1nc(Oc3ccc(C#N)nc3)nc(N3CC4CC(N)C4C3)c12 (centres unmarked) [Compound 4.332],≤0.5 µg/mL
9,CNc1cc(F)cc2c1[nH]c1nc(Oc3cnc(C)nc3)nc(N3CC4CCC(N)C4(C)C3)c12 (centres unmarked) [Compound 4.099],≤0.5 µg/mL
10,CNc1cc(F)cc2c1[nH]c1nc(Oc3cnc(N4CCC4)nc3)nc(N3CC4C(N)C4C3)c12 (centres unmarked) [Compound 4.296],≤0.5 µg/mL
11,CNc1cc(F)cc2c1[nH]c1nc(Oc3cnc4c(ccn4C)c3)nc(N3CC4CC(N)C4C3)c12 (centres unmarked) [Compound 4.328],≤0.5 µg/mL
12,CCc1cc(F)cc2c1[nH]c1nc(Oc3cncnc3)nc(N3CC4CC(N)C4C3)c12 (centres unmarked) [Compound 2.5],≤0.5 µg/mL
13,CNc1cc(F)cc2c1[nH]c1nc(Oc3cnc4c(c3)ncn4C)nc(N3CC4CC(N)C4C3)c12 (centres unmarked) [Compound 4.226],≤0.5 µg/mL
14,CNc1cc(F)cc2c1[nH]c1nc(Oc3cnc(C)nc3)nc(N3CC(N)C4(CC4)C3)c12 (centres unmarked) [Compound 4.068],≤0.5 µg/mL
15,CNc1cc(F)cc2c1[nH]c1nc(Oc3cnc(N)nc3)nc(N3CC4C(N)C4C3)c12 (centres unmarked) [Compound 4.172],≤0.5 µg/mL
16,CNc1cc(F)cc2c1[nH]c1nc(Oc3cnc(NC4CC4)nc3)nc(N3CC4C(N)C4C3)c12 (centres unmarked) [Compound 4.223],≤0.5 µg/mL
17,Nc1cccc2c1[nH]c1nc(Sc3cnc4ccc[n+]([O-])c4c3)nc(N3CC4C(N)C4C3)c12 (centres unmarked) [Compound 1.08],64 µg/mL
18,CNc1cc(F)cc2c1[nH]c1nc(Oc3cnc4c(c3)ncn4C)nc(N3CC[C@@H](N)C3)c12 [Compound 4.225],≤0.5 µg/mL
19,CNc1cc(F)cc2c1[nH]c1nc(Oc3cnc(N)nc3)nc(N3CCC(N)C3)c12 (centres unmarked) [Compound 4.179],≤0.5 µg/mL
20,CCc1cc(F)cc2c1[nH]c1nc(Oc3cnc(C)nc3)nc(N3CC(N)C4(CC4)C3)c12 (centres unmarked) [Compound 2.3],1 µg/mL
21,CNc1cc(F)cc2c1[nH]c1nc(Oc3cnc(N)nc3)nc(N3CC4CCNC4C3)c12 (centres unmarked) [Compound 4.187],≤0.5 µg/mL
22,CNc1cc(F)cc2c1[nH]c1nc(Oc3cnc4[nH]cnc4c3)nc(N3CC4C(N)C4C3)c12 (centres unmarked) [Compound 4.311],4 µg/mL
23,CNc1cc(F)cc2c1[nH]c1nc(Oc3cnc(C#N)c(C)c3)nc(N3CC4CC(N)C4C3)c12 (centres unmarked) [Compound 4.323],≤0.5 µg/mL

# Same assay, conditions: Staphylococcus aureus, ATCC13709, S. aureus; Alamar Blue read after overnight incubation at 35° C.; read-out: MIC Sa
row,SMILES,MIC
1,CNc1cc(F)cc2c1[nH]c1nc(Oc3cnc(C)nc3)nc(N3CC(N)C(C(=O)OC)C3)c12 (centres unmarked) [Compound 4.437],≤ 0.5 µg/mL
2,CNc1cccc2c1[nH]c1nc(Sc3cnc4cccnc4c3)nc(N3CC(N)C4(CC4)C3)c12 (centres unmarked) [Compound 1.27],≤ 0.5 µg/mL
3,CNc1cc(F)cc2c1[nH]c1nc(Oc3cnc(C)nc3)nc(N3CC(N)C(C(=O)N4CCOCC4)C3)c12 (centres unmarked) [Compound 4.438],1 µg/mL
4,CNc1cccc2c1[nH]c1nc(Sc3cnc4ccc[n+]([O-])c4c3)nc(N3CC[C@@H](C)[C@@H](N)C3)c12 [Compound 1.35],≤ 0.5 µg/mL
5,CNc1cc(F)cc2c1[nH]c1nc(Sc3cnc4ccc[n+]([O-])c4c3)nc(N3CC4C(N)C4C3)c12 (centres unmarked) [Compound 1.50],≤ 0.5 µg/mL

# Test system: E. coli ATCC 25922
# Experiment: MIC, E. coli ATCC 25922
# Assay type: cell-based
# Conditions: E. coli; Alamar Blue read after overnight incubation at 35° C.
row,SMILES,MIC Ec
1,CNc1cc(F)cc2c1[nH]c1nc(Oc3cnc(C#N)c(C)c3)nc(N3CC4(CCC4N)C3)c12 (centres unmarked) [Compound 4.326],≤0.5 µg/mL
2,CNc1cc(F)cc2c1[nH]c1nc(Oc3cnc(CC(=O)N4CC(N(C)C)C4)nc3)nc(N3C[C@H](N)C4(CC4)C3)c12 [Compound 4.373],8 µg/mL
3,CNc1cc(F)cc2c1[nH]c1nc(Oc3cnc(C)nc3)nc(N3CC4CCC(CN)C4C3)c12 (centres unmarked) [Compound 4.112],1 µg/mL
4,CNc1cc(F)cc2c1[nH]c1nc(Oc3cnc(SC)nc3)nc(N3CC4CCC(N)C4C3)c12 (centres unmarked) [Compound 4.200],≤0.5 µg/mL
5,CNc1cc(F)cc2c1[nH]c1nc(Oc3cncnc3)nc(N3CC4CCC(N)C4C3)c12 (centres unmarked) [Compound 4.026],≤0.5 µg/mL
6,CNc1cc(F)cc2c1[nH]c1nc(Oc3cnc(C)nc3)nc(N3CC4C(C3)C4NC(=O)CN)c12 (centres unmarked) [Compound 4.078],8 µg/mL
7,CNc1cc(F)cc2c1[nH]c1nc(Oc3cncnc3)nc(N3CCC(C4(N)CC4)C3)c12 (centres unmarked) [Compound 4.027],1 µg/mL
8,CNc1cc(F)cc2c1[nH]c1nc(Oc3ccc(C#N)nc3)nc(N3CC4CC(N)C4C3)c12 (centres unmarked) [Compound 4.332],≤0.5 µg/mL
9,CNc1cc(F)cc2c1[nH]c1nc(Oc3cnc(C)nc3)nc(N3CC4CCC(N)C4(C)C3)c12 (centres unmarked) [Compound 4.099],4 µg/mL
10,CNc1cc(F)cc2c1[nH]c1nc(Oc3cnc(N4CCC4)nc3)nc(N3CC4C(N)C4C3)c12 (centres unmarked) [Compound 4.296],≤0.5 µg/mL
11,CNc1cc(F)cc2c1[nH]c1nc(Oc3cnc4c(ccn4C)c3)nc(N3CC4CC(N)C4C3)c12 (centres unmarked) [Compound 4.328],1 µg/mL
12,CCc1cc(F)cc2c1[nH]c1nc(Oc3cncnc3)nc(N3CC4CC(N)C4C3)c12 (centres unmarked) [Compound 2.5],2 µg/mL
13,CNc1cc(F)cc2c1[nH]c1nc(Oc3cnc4c(c3)ncn4C)nc(N3CC4CC(N)C4C3)c12 (centres unmarked) [Compound 4.226],2 µg/mL
14,CNc1cc(F)cc2c1[nH]c1nc(Oc3cnc(C)nc3)nc(N3CC(N)C4(CC4)C3)c12 (centres unmarked) [Compound 4.068],≤0.5 µg/mL
15,CNc1cc(F)cc2c1[nH]c1nc(Oc3cnc(N)nc3)nc(N3CC4C(N)C4C3)c12 (centres unmarked) [Compound 4.172],≤0.5 µg/mL
16,CNc1cc(F)cc2c1[nH]c1nc(Oc3cnc(NC4CC4)nc3)nc(N3CC4C(N)C4C3)c12 (centres unmarked) [Compound 4.223],≤0.5 µg/mL
17,Nc1cccc2c1[nH]c1nc(Sc3cnc4ccc[n+]([O-])c4c3)nc(N3CC4C(N)C4C3)c12 (centres unmarked) [Compound 1.08],>64 µg/mL
18,CNc1cc(F)cc2c1[nH]c1nc(Oc3cnc4c(c3)ncn4C)nc(N3CC[C@@H](N)C3)c12 [Compound 4.225],2 µg/mL
19,CNc1cc(F)cc2c1[nH]c1nc(Oc3cnc(N)nc3)nc(N3CCC(N)C3)c12 (centres unmarked) [Compound 4.179],1 µg/mL
20,CCc1cc(F)cc2c1[nH]c1nc(Oc3cnc(C)nc3)nc(N3CC(N)C4(CC4)C3)c12 (centres unmarked) [Compound 2.3],16 µg/mL
21,CNc1cc(F)cc2c1[nH]c1nc(Oc3cnc(N)nc3)nc(N3CC4CCNC4C3)c12 (centres unmarked) [Compound 4.187],2 µg/mL
22,CNc1cc(F)cc2c1[nH]c1nc(Oc3cnc4[nH]cnc4c3)nc(N3CC4C(N)C4C3)c12 (centres unmarked) [Compound 4.311],>16 µg/mL
23,CNc1cc(F)cc2c1[nH]c1nc(Oc3cnc(C#N)c(C)c3)nc(N3CC4CC(N)C4C3)c12 (centres unmarked) [Compound 4.323],1 µg/mL

# Same assay, conditions: Escherichia coli, ATCC25922, E. coli; Alamar Blue read after overnight incubation at 35° C.; read-out: MIC Ec
row,SMILES,MIC
1,CNc1cc(F)cc2c1[nH]c1nc(Oc3cnc(C)nc3)nc(N3CC(N)C(C(=O)OC)C3)c12 (centres unmarked) [Compound 4.437],1 µg/mL
2,CNc1cccc2c1[nH]c1nc(Sc3cnc4cccnc4c3)nc(N3CC(N)C4(CC4)C3)c12 (centres unmarked) [Compound 1.27],1 µg/mL
3,CNc1cc(F)cc2c1[nH]c1nc(Oc3cnc(C)nc3)nc(N3CC(N)C(C(=O)N4CCOCC4)C3)c12 (centres unmarked) [Compound 4.438],16 µg/mL
4,CNc1cccc2c1[nH]c1nc(Sc3cnc4ccc[n+]([O-])c4c3)nc(N3CC[C@@H](C)[C@@H](N)C3)c12 [Compound 1.35],2 µg/mL
5,CNc1cc(F)cc2c1[nH]c1nc(Sc3cnc4ccc[n+]([O-])c4c3)nc(N3CC4C(N)C4C3)c12 (centres unmarked) [Compound 1.50],≤ 0.5 µg/mL
